Measured values: publication PMC10821532, “Sex and Cross-Sex Testosterone Treatment Alters Gamma-Hydroxybutyrate Acid Toxicokinetics and Toxicodynamics in Rats” (Pharmaceutics, 2024)

Tests used:
[1] = Plasma testosterone level after 21 days of testosterone pellet treatment (LC-MS); assay type: in vivo, Sprague Dawley rats; conditions: Sprague Dawley, rat, sc, 7.5 mg 60-day release testosterone pellet s.c.
Procedure: (§1) Male and female Sprague Dawley (SD) rats, ovariectomized (OVX) females, and castrated (CST) males were obtained from Charles River (Wilmington, MA, USA) at 8 weeks of age. The animals were housed under controlled temperature and humidity with an artificial 12 h light/dark cycle, and food and water were available ad libitum. The animals were acclimatized for at least one week before experiments. Hormone treatment was conducted by implanting OVX female and CST male rats subcutaneously with 60-day release pellets containing 7.5 mg testosterone or corresponding placebo pellets (Innovative Research of America) at 10 weeks of age. After 21 days of hormone exposure, rats were utilized in toxicokinetic studies. Age-matched male and female rats were used as control groups. Female rats in the estrus stage were selected for the study. Estrus cycle stages of female rats were monitored daily by vaginal lavage smear, as described in previously published literature. The Institutional Animal Care and Use Committee (IACUC) at the University of the Pacific approved all experiments.
Testosterone plasma concentrations were quantified using a validated LC-MS assay, as described previously. […] The same LC/MS/MS equipment was used for quantification, as mentioned above. […]

[2] = test system: MCT4; set-up: method as in PMID 19929853; conditions: cited from earlier work
[3] = GHB toxicokinetic study, i.v. bolus, plasma and urine up to 8 h, noncompartmental analysis; assay type: in vivo, Sprague Dawley rats; conditions: 1 mg/kg AR-C 155858 iv 5 min after 1500 mg/kg GHB iv vs GHB alone
Procedure: as §1
(§2) Jugular vein cannulas were surgically implanted under anesthesia with ketamine/xylazine. Cannulas were flushed daily with heparinized saline to maintain patency. Rats were allowed a minimum of 72 h for recovery from surgery before the experiments were conducted. GHB was administered intravenously as a 1000 mg/kg i.v. bolus or 1500 mg/kg iv bolus with or without AR-C155858 (1 mg/kg i.v. bolus) via a jugular vein cannula to the animals at 13 weeks of age (N = 5–7 per group). Rats were dosed in metabolic cages with ad libitum access to water to allow for the concurrent collection of blood and urine samples for up to 8 h. GHB was administered as a 300 mg/mL solution in sterile water, and the time of administration was considered as time 0. AR-C155858 was administered as a 1 mg/mL solution in 10% cyclodextrin in normal saline 5 min after GHB administration. Blood samples (200 μL) were taken from the jugular vein cannula at different time points: 5, 10, 20, 30, 60, 90, 120, 180, 240, 270, 300, and 330 min for 1000 mg/kg and 10, 30, 60, 90, 120, 180, 240, 270, 300, 330, 360, and 390/480 min for 1500 mg/kg bolus with or without AR-C155858. Plasma samples were separated by centrifugation and stored at −20 °C. Urine samples were collected at 120, 240, and 360 min for 1000 mg/kg and 120, 240, and 390/480 min for 1500 mg/kg bolus with or without AR-C155858 post-dose; the total urine volume was determined, and the samples were stored at −20 °C.
GHB in plasma and urine were quantified using a validated liquid chromatography/tandem mass spectrometry (LC/MS/MS) assay that was described previously. Briefly, for the preparation of plasma standards and quality controls (QCs), 5 μL of GHB-d6 and 5 μL of standard stock solution or QC stock solution were added to 45 μL of blank plasma. For each unknown plasma sample, 5 μL of GHB-d6 was added to 50 μL of plasma. Protein precipitation was then performed by the addition of 800 μL of acetonitrile with 0.1% formic acid, followed by centrifugation at 10,000 rpm for 20 min. 750 μL of the supernatant was transferred to a clean disposable glass tube and evaporated using a MultiVap Nitrogen Evaporator (Organomation, Berlin, MA, USA) under a nitrogen stream. Dried samples were reconstituted in 250 μL of 95:5 double-distilled water—acetonitrile with 0.1% acetic acid. For urine standards and QCs, 25 μL of blank urine, 5 μL of standard or QC stock solution, 5 μL of GHB-d6, and 465 μL of double-distilled water were mixed. For unknown urine samples, 25 μL of the sample was added to 5 μL of GHB-d6 and 470 μL of double-distilled water. The same LC/MS/MS method was used for GHB plasma and urine analyses. LC/MS/MS equipment consisted of an Agilent 1200 series UPLC consisting of an online degasser, binary pump, and autosampler (Agilent Technologies, Santa Clara, CA, USA) connected to a Agilent 6460 Triple Quad Mass Spectrometer. […]

[4] = biological target: MCT2; set-up: method as in PMID 19929853; conditions: cited from earlier work
[5] = test system: Sprague Dawley (SD) rats; assay: Sedative/hypnotic effect (sleep time, RRR-LRR) after i.v. GHB; assay type: in vivo
Procedure: as §2
The sedative/hypnotic effects (sleep time) were determined, as described in a previous publication. The sedative/hypnotic duration effect of GHB was determined as the difference between the offset of the sedative/hypnotic effect (RRR) and the onset of the sedative/hypnotic effect (LRR).

Row | SMILES | concentration at 21 days ([1]; female, OVX rats) [ng/mL] | concentration at 21 days ([1]; male, CST rats) [ng/mL] | Inhibitory effect on MCT4 [2] | Effect of AR-C 155858 on GHB fe [3] | Effect of AR-C 155858 on GHB metabolic clearance [3] | Effect of AR-C 155858 on GHB renal clearance [3] | Effect of AR-C155858 on GHB AUC ([3]; all animal groups) | Effect of AR-C155858 on GHB total clearance ([3]; all animal groups) | Ki [4] [nM] | Effect of AR-C 155858 on GHB sleep time ([5]; 1 mg/kg AR-C 155858 iv 5 min after 1500 mg/kg GHB iv vs GHB alone) | Sleep time after AR-C 155858 administration ([5]; 1500 mg/kg GHB iv + 1 mg/kg AR-C 155858 iv 5 min after GHB, all populations) [min]
1 | C[C@]12CC[C@H]3[C@@H](CCC4=CC(=O)CC[C@@]43C)[C@@H]1CC[C@@H]2O [Testosterone, testosterone] | 6.22 ± 2.63 | 5.44 ± 1.96 | – | – | – | – | – | – | – | – | –
2 | Cc1n[nH]c(C)c1Cc1sc2c(c1C(=O)N1C[C@H](O)CO1)c(=O)n(C)c(=O)n2CC(C)C [AR-C 155858, 6-[(3,5-Dimethyl-1H-pyrazol-4-yl)methyl]-5-[[(4S)-4-hydroxy-2-isoxazolidinyl]carbonyl]-3-methyl-1-(2-methylpropyl)thieno [2,3-d]pyrimidine-2,4(1H,3H)-dione] | – | – | no inhibitory effect on MCT4 | significantly increased fe in testosterone-treated animal groups | did not yield any statistically significant differences in metabolic clearance across all animal groups, except in intact males | statistically significant increase in renal clearance across all animal groups, except for intact males | lower AUC | higher total clearance | ~10 | significant reduction in sleep time across all animal groups | 0 to 38
